≈ marks a conversion by molar mass, not a printed value. Where a name gives a salt, the structure may show the parent alone. Read-outs that look alike come from different tables or passages of the source.
Key:
[1] = test system: E. Coli ATCC 25922; assay: Test for evaluating antibacterial activity (E. coli), broth microdilution MIC; assay type: cell-based; conditions: Escherichia coli, ATCC25922; 35° C., 18 hours, cation-adjusted Mueller-Hinton medium
Method in brief: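 Broth microdilution per modified CLSI method in cation-adjusted Mueller-Hinton medium. Inoculum from overnight heart infusion agar growth, McFarland 0.5 suspension diluted 10-fold; incubation 35° C for 18 hours. MIC taken as lowest drug concentration with no visible growth.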

[2] = test system: N. gonorrhoeae ATCC 49226; assay: Test for evaluating antibacterial activity (N. gonorrhoeae), broth microdilution MIC; assay type: cell-based; conditions: Neisseria gonorrhoeae, ATCC49226; 35° C., 24 hours, gonococcal broth
Method in brief: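 Broth microdilution in gonococcal broth with 1% supplement C, inoculum from overnight chocolate II agar culture at McFarland 0.5 diluted 5-fold.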

[3] = biological target: T1, E. coli topoisomerase IV (Escherichia coli, UniProt P20083); assay: Test for evaluating the activity of inhibiting E. coli topoisomerase IV enzyme (relaxation); assay type: biochemical
T1 construct: purchased Inspiralis
Protocol: The enzymatic activity of E. coli topoisomerase IV was measured by a method comprising reacting topoisomerase IV and its substrate, supercoiled pBR322 (Inspiralis), in the presence of ATP and detecting the post-reaction supercoiled pBR322/relaxed pBR322 ratio with H19.
Specifically, to 2 ng/μL of supercoiled pBR322, E. coli topoisomerase IV enzyme (Inspiralis) was added at a final concentration of 0.0075 U/μL and the mixture was incubated for 30 minutes at room temperature. This reaction was carried out in 20 mmol/L tris-HCl buffered solution (pH 8.0) comprising 0.5 mmol/L ATP, 0.005% bridge 35, 35 mmol/L ammonium acetate, 8 mmol/L magnesium chloride, 4.6% glycerol, and 1 mmol/L dithiothreitol. To the reaction mixture, H19 was added to bring the reaction to an end; thereafter, the supercoiled pBR322/relaxed pBR322 ratio was detected at excitation wavelength/emission wavelength=485 nm/535 nm. An inhibition curve was obtained by allowing the analyte compound to be present at varying concentrations during the reaction described above.

[4] = biological target: T2, E. coli DNA gyrase (Escherichia coli, UniProt P0AES6); assay: Test for evaluating the activity of inhibiting E. coli DNA gyrase enzyme (Method 2, supercoiling, recombinant gyrA/gyrB complex); assay type: biochemical
T2 construct: made in house; host or cells: E. coli BL21 (DE3)
Method in brief: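 Recombinant E. coli gyrA/gyrB complex (His-tagged, BL21(DE3)-expressed, Ni-NTA purified; 0.135 nmol/mL final) supercoiled relaxed pBR322 (1 ng/μL) with 0.5 mmol/L ATP in pH 8.0 Tris buffer, 60 min at room temperature. H19 stopped the reaction; supercoiled/relaxed ratio read at 485/535 nm, inhibition curves built from varying compound concentrations.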

[5] = biological target: T2, E. coli DNA gyrase; assay: Test for evaluating the activity of inhibiting E. coli DNA gyrase enzyme (Method 1, supercoiling, Inspiralis enzyme); assay type: biochemical
Method in brief: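 Relaxed pBR322 (1 ng/μL) supercoiled by E. coli gyrase (0.006 U/μL final) with 0.5 mmol/L ATP in 20 mmol/L Tris-HCl pH 8.0, 8 mmol/L MgCl2, 35 mmol/L ammonium acetate, 60 min, room temperature. Stopped with H19; supercoiled/relaxed ratio read at 485/535 nm; inhibition curve across compound concentrations.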

[6] = read-out: E. Coli TopoIV relaxation IC50
[7] = Method 2, read-out: E. Coli Gyrase supercoiling IC50
[8] = Method 1, read-out: E. Coli Gyrase supercoiling IC50

T1 sequence (P20083 whole entry): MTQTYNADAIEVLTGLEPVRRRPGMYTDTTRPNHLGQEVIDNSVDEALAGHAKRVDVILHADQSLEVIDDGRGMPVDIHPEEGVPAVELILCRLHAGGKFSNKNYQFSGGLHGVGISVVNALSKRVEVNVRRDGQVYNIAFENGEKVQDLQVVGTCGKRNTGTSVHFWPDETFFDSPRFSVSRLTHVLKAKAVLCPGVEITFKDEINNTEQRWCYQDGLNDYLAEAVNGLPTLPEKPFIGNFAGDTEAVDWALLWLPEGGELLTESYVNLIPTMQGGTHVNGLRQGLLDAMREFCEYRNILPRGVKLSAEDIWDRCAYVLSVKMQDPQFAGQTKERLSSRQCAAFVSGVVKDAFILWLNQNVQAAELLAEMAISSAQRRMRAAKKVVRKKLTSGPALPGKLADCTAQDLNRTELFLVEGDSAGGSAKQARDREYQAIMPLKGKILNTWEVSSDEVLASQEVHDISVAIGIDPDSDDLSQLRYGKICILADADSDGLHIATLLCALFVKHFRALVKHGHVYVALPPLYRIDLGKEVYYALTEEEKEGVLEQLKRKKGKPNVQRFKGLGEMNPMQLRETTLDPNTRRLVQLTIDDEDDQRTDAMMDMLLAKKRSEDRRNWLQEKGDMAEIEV
T1 sequence (P0AFI2 whole entry, further chain): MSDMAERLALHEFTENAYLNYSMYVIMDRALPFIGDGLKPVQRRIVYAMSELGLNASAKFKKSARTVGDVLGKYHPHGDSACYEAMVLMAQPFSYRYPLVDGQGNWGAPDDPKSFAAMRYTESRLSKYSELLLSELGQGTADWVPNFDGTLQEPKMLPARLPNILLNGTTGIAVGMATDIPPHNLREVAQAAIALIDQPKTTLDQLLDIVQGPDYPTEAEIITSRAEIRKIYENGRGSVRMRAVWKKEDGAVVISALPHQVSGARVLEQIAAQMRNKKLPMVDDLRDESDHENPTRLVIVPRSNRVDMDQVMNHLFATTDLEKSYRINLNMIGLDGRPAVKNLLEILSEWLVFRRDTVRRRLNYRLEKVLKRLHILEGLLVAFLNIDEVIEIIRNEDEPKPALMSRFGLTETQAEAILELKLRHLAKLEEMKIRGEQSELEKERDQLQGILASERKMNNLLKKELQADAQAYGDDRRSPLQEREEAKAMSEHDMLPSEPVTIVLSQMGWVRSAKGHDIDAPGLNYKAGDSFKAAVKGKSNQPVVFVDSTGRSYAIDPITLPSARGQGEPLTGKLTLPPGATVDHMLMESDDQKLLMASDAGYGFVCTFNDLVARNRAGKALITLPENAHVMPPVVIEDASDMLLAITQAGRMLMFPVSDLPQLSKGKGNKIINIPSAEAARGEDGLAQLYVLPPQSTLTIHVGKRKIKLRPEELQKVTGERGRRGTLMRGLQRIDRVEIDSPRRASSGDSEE

| SMILES | MIC [1] | MIC [2] | IC50 [3, 6] | IC50 [4, 7] | IC50 [4] | IC50 [3] | IC50 [5, 8] | IC50 [5] |
| --- | --- | --- | --- | --- | --- | --- | --- | --- |
| CNc1cccc2cc(C(=O)Nc3ccc(C(=O)O)cc3)c(=O)[nH]c12 [Example 2, 4-{[8-(methylamino)-2-oxo-1,2-dihydroquinoline-3-carbonyl]amino} benzoic acid] | 64 µg/mL (≈ 190 µM) | > 1 µg/mL | 980 nM | – | – | – | – | – |
| CNc1cccc2cc(C(=O)NCCc3cccc(C(=O)O)c3)c(=O)[nH]c12 [Example 5, 3-(2-{[8-(methylamino)-2-oxo-1,2-dihydroquinoline-3-carbonyl]amino}ethyl)benzoic acid] | > 64 µg/mL | – | 17000 nM | 9.75 nM | – | – | – | – |
| CNc1cc(F)cc2cc(C(=O)Nc3ccc(C(=O)O)cc3)c(=O)[nH]c12 [Example 33, 4-[[6-Fluoro-8-(methylamino)-2-oxo-1,2-dihydroquinoline-3-carbonyl]amino]benzoic Acid] | 16 µg/mL (≈ 45 µM) | 0.004 µg/mL (≈ 0.0113 µM) | – | – | 0.36 nM | 219 nM | – | – |
| CNc1cc(F)cc2cc(C(=O)Nc3ccc(C(=O)NCCN4CCOCC4)cc3)c(=O)[nH]c12 [Example 40, 6-Fluoro-8-(methylamino)-N-(4-[[2-(morpholin-4-yl)ethyl]carbamoyl]phenyl)-2-oxo-1,2-dihydroquinoline-3-carboxamide] | 4 µg/mL (≈ 8.56 µM) | – | 1300 nM | 7.29 nM | – | – | – | – |
| CNc1cc(F)cc2cc(C(=O)Nc3ccccc3CN(C)C3CCCCC3)c(=O)[nH]c12 [Example 52, N-(2-{[cyclohexyl(methyl)amino]methyl}phenyl)-6-fluoro-8-(methylamino)-2-oxo-1,2-dihydroquinoline-3-carboxamide] | 16 µg/mL (≈ 36.7 µM) | 0.5 µg/mL (≈ 1.15 µM) | 519 nM | – | – | – | 2.47 nM | – |
| CNc1cc(F)cc2cc(C(=O)Nc3cnc(C(=O)O)nc3)c(=O)[nH]c12 [Example 65, 5-[[6-Fluoro-8-(methylamino)-2-oxo-1,2-dihydroquinoline-3-carbonyl]amino]pyrimidine-2-carboxylic Acid] | > 16 µg/mL | 0.5 µg/mL (≈ 1.4 µM) | 32.5 nM | – | – | – | 0.95 nM | – |
| CNc1cc(F)cc2cc(C(=O)Nc3ccc(C(=O)O)cc3CN(C)C3CCCCC3)c(=O)[nH]c12 [Example 70, 3-{[cyclohexyl (methyl)amino]methyl}-4-{[6-fluoro-8-(methylamino)-2-oxo-1,2-dihydroquinoline-3-carbonyl]amino} bezoic acid-hydrochloride] | 8 µg/mL | 0.03 µg/mL | – | – | – | 47.4 nM | – | 0.53 nM |
| CNc1cc(F)cc2cc(C(=O)Nc3cccnc3)c(=O)[nH]c12 [Example 72, 6-fluoro-8-(methylamino)-2-oxo-N-(pyridine-3-yl)-1,2-dihydroquinoline-3-carboxamide] | > 4 µg/mL | 0.12 µg/mL (≈ 0.384 µM) | – | – | – | – | 8.03 nM | – |
| CNc1cc(F)cc2cc(C(=O)Nc3ccccc3)c(=O)[nH]c12 [Example 76, 6-fluoro-8-(methylamino)-2-oxo-N-phenyl-1,2-dihydroquinoline-3-carboxamide] | > 32 µg/mL | 0.25 µg/mL (≈ 0.803 µM) | – | – | – | – | 249 nM | – |
| CNc1cc(F)cc2cc(C(=O)OCc3ccncc3N)c(=O)[nH]c12 [Example 77, (3-aminopyridine-4-yl)methyl 6-fluoro-8-(methylamino)-2-oxo-1,2-dihydroquinoline-3-carboxylate] | > 16 µg/mL | 1 µg/mL (≈ 2.92 µM) | – | – | – | – | 24.3 nM | – |
| CNc1cc(F)cc2cc(C(=O)Nc3ccc(C(=O)O)cc3CN(C)C)c(=O)[nH]c12 [Example 85, 3-[(dimethylamino)methyl]-4-{[6-fluoro-8-(methylamino)-2-oxo-1,2-dihydroquinoline-3-carbonyl]amino} benzoic acid] | > 4 µg/mL | 2 µg/mL (≈ 4.85 µM) | – | – | 0.61 nM | 176 nM | – | – |
| CNc1cc(F)cc2cc(C(=O)Nc3ccc(C(=O)O)cc3CN3CCCCC3)c(=O)[nH]c12 [Example 96, 4-{[6-fluoro-8-(methylamino)-2-oxo-1,2-dihydroquinoline-3-carbonyl]amino}-3-[(piperidine-1-yl)methyl] benzoic acid] | 4 µg/mL (≈ 8.84 µM) | 0.015 µg/mL (≈ 0.0332 µM) | – | – | 0.31 nM | 15.3 nM | – | – |
| CCCCCN(C)Cc1cc(C(=O)O)ccc1NC(=O)c1cc2cc(F)cc(NC)c2[nH]c1=O [Example 98, 4-{[6-fluoro-8-(methylamino)-2-oxo-1,2-dihydroquinoine-3-carbonyl]amino}-3-{[methyl (pentyl)amino)methyl} benzoic acid] | 4 µg/mL (≈ 8.54 µM) | 0.06 µg/mL (≈ 0.128 µM) | – | – | 0.21 nM | 41.4 nM | – | – |
| CNc1cc(F)cc2cc(C(=O)Nc3ccc(C(=O)O)cc3CN(CCO)C3CCCCC3)c(=O)[nH]c12.Cl [Example 104, 3-{[cyclohexyl (2-hydroxyethyl)amino]methyl}-4-{[6-fluoro-8-(methylamino)-2-oxo-1,2-dihydroquinoline-3-carbonyl]amino} benzoic acid-hydrochloride] | 8 µg/mL | 0.015 µg/mL | – | – | 0.29 nM | 23.4 nM | – | – |
| CNc1cc(F)cc2cc(C(=O)Nc3ccc(C(=O)O)cc3CN(CC(=O)O)C3CCCCC3)c(=O)[nH]c12 [Example 107, 3-{[(carboxymethyl) (cyclohexyl)amino]methyl} -4-{[6-fluoro-8-(methylamino)-2-oxo-1,2-dihydroquinoline-3-carbonyl]amino} benzoic acid] | > 64 µg/mL | 0.5 µg/mL (≈ 0.953 µM) | 76.3 nM | 0.57 nM | – | – | – | – |
| CNc1cc(F)cc2c(O)c(C(=O)Nc3ccc(C(=O)O)cc3)c(=O)[nH]c12 [Example 117, 4-[[6-Fluoro-4-hydroxy-8-(methylamino)-2-oxo-1,2-dihydroquinoline-3-carbonyl]amino]benzoic Acid] | 1 µg/mL (≈ 2.69 µM) | 0.0005 µg/mL (≈ 0.00135 µM) | 62.9 nM | 1.1 nM | – | – | – | – |
| CNc1cc(F)cc2cc(C(=O)Nc3ccccc3CN(CCO)C3CCCCC3)c(=O)[nH]c12 [Example 123, N-(2-{[cyclohexyl(2-hydroxyethyl)amino]methyl}phenyl)-6-fluoro-8-(methylamino)-2-oxo-1,2-dihydroquinoline-3-carboxamide] | 8 µg/mL (≈ 17.1 µM) | – | 615 nM | 3.59 nM | – | – | – | – |
| CNc1cc(F)cc2c(NCC3CCNC3)c(C(=O)Nc3ccc(C(=O)O)cc3)c(=O)[nH]c12.O=CO (stereo not shown) [Example 133, 4-{[6-fluoro-8-(methylamino)-2-oxo-4-{[(pyrrolidine-3-yl)methyl]amino}-1,2-dihydroqunoline-3-carbonyl]amino}benzoic acid-formate] | > 16 µg/mL | – | – | – | 0.82 nM | 160 nM | – | – |
| CNc1cc(F)cc2cc(C(=O)Nc3ccc(C(=O)NS(=O)(=O)N(C)C)cc3)c(=O)[nH]c12 [Example 146, N-{4-[(dimethylsulfamoyl)carbamoyl]phenyl}-6-fluoro-8-(methylamino)-2-oxo-1,2-dihydroquinoline-3-carboxamide] | 16 µg/mL (≈ 34.7 µM) | 0.008 µg/mL (≈ 0.0173 µM) | 51.9 nM | 0.43 nM | – | – | – | – |
| CNc1cc(F)cc2c(O)c(C(=O)Nc3ccc(C(=O)NS(=O)(=O)N(C)C)cc3)c(=O)[nH]c12 [Example 148, N-{4-[(dimethyl-sulfamoyl)carbamoyl]phenyl}-6-fluoro-4-hydroxy-8-(methylamino)-2-oxo-1,2-dihydroquinoline-3-carboxamide] | 1 µg/mL (≈ 2.09 µM) | ≤ 0.0005 µg/mL | – | – | 2.66 nM | 127 nM | – | – |
| CNc1cc(F)cc2c(O)c(C(=O)Nc3ccc(C(=O)O)cc3CN3CCCCC3)c(=O)[nH]c12.O=C(O)C(F)(F)F [Example 153, 4-{[6-fluoro-4-hydroxy-8-(methylamino)-2-oxo-1,2-dihydroquinoline-3-carbonyl]amino}-3-[(piperidine-1-yl)methyl]benzoic acid-trifluoroacetate] | 8 µg/mL | 0.06 µg/mL | – | – | 7.53 nM | 4930 nM | – | – |
